Laboratory results as given in US20140342379A1, “Means and Methods for Assessing Gonadal Toxicity” (BASF SE, priority 2011, published 2014).
Marks after values point to notes of the source that are not given here.

Test system: male rats
Experiment: 28-day repeated dose study, plasma metabolite profiling (GC-MS, LC-MS), male rats
Type: in vivo, rat
Description: Drinking water was also offered ad libitum.

## CCCCOCCO [2-Butoxyethanol]
Day 7
  18-Hydroxy-11-deoxycorticosterone, plasma, treatment ratio versus control: 0.18*
  Alanine, plasma, treatment ratio versus control: 0.83*
  Arachidonic acid (C20:cis[5,8,11,14]4), plasma, treatment ratio versus control: 0.86*
  Coenzyme Q9, plasma, treatment ratio versus control: 0.83*
  Creatinine, plasma, treatment ratio versus control: 1.03
  DAG (C18:1, C18:2), plasma, treatment ratio versus control: 0.99
  Fructose-6-phosphate, plasma, treatment ratio versus control: 0.84
  Galactose, lipid fraction, plasma, treatment ratio versus control: 0.8*
  Glucosamine, plasma, treatment ratio versus control: 1
  Glucose, plasma, treatment ratio versus control: 0.81*
  Glycerol, polar fraction, plasma, treatment ratio versus control: 0.86*
  Heneicosanoic acid (C21:0), plasma, treatment ratio versus control: 0.88
  Lactate, plasma, treatment ratio versus control: 0.93*
  Linolenic acid (C18:cis[9,12,15]3), plasma, treatment ratio versus control: 1.01
  Lysine, plasma, treatment ratio versus control: 0.81*
  Malate, plasma, treatment ratio versus control: 0.81*
  Oleic acid (C18:cis[9]1), plasma, treatment ratio versus control: 0.98
  Palmitoleic acid (C16:cis[9]1), plasma, treatment ratio versus control: 0.94
  Phenylalanine, plasma, treatment ratio versus control: 0.87*
  Phosphate (inorganic and organic phosphates), plasma, treatment ratio versus control: 1.05
  Pyruvate, plasma, treatment ratio versus control: 1.1
  Spermidine, plasma, treatment ratio versus control: 0.67*
  TAG (C16:0,C16:1), plasma, treatment ratio versus control: 1.16
  Uracil, plasma, treatment ratio versus control: 0.77*
  myo-Inositol, plasma, treatment ratio versus control: 0.88
  trans-4-Hydroxyproline, plasma, treatment ratio versus control: 1.03
Day 14
  18-Hydroxy-11-deoxycorticosterone, plasma, treatment ratio versus control: 0.44*
  Alanine, plasma, treatment ratio versus control: 0.93
  Arachidonic acid (C20:cis[5,8,11,14]4), plasma, treatment ratio versus control: 0.84
  Coenzyme Q9, plasma, treatment ratio versus control: 0.5*
  Creatinine, plasma, treatment ratio versus control: 1.34*
  DAG (C18:1, C18:2), plasma, treatment ratio versus control: 0.69*
  Fructose-6-phosphate, plasma, treatment ratio versus control: 1.11
  Galactose, lipid fraction, plasma, treatment ratio versus control: 0.86
  Glucosamine, plasma, treatment ratio versus control: 0.88
  Glucose, plasma, treatment ratio versus control: 0.73*
  Glycerol, polar fraction, plasma, treatment ratio versus control: 0.95
  Heneicosanoic acid (C21:0), plasma, treatment ratio versus control: 0.86*
  Lactate, plasma, treatment ratio versus control: 0.86
  Linolenic acid (C18:cis[9,12,15]3), plasma, treatment ratio versus control: 0.9*
  Lysine, plasma, treatment ratio versus control: 1
  Malate, plasma, treatment ratio versus control: 0.79*
  Oleic acid (C18:cis[9]1), plasma, treatment ratio versus control: 0.8*
  Palmitoleic acid (C16:cis[9]1), plasma, treatment ratio versus control: 0.77
  Phenylalanine, plasma, treatment ratio versus control: 0.94*
  Phosphate (inorganic and organic phosphates), plasma, treatment ratio versus control: 1.03
  Pyruvate, plasma, treatment ratio versus control: 0.78
  Spermidine, plasma, treatment ratio versus control: 0.68*
  TAG (C16:0,C16:1), plasma, treatment ratio versus control: 0.66*
  Uracil, plasma, treatment ratio versus control: 0.9
  myo-Inositol, plasma, treatment ratio versus control: 0.82*
  trans-4-Hydroxyproline, plasma, treatment ratio versus control: 1.21*
Day 28
  18-Hydroxy-11-deoxycorticosterone, plasma, treatment ratio versus control: 0.68*
  Alanine, plasma, treatment ratio versus control: 0.91*
  Arachidonic acid (C20:cis[5,8,11,14]4), plasma, treatment ratio versus control: 0.84
  Coenzyme Q9, plasma, treatment ratio versus control: 0.83
  Creatinine, plasma, treatment ratio versus control: 1.19*
  DAG (C18:1, C18:2), plasma, treatment ratio versus control: 0.78
  Fructose-6-phosphate, plasma, treatment ratio versus control: 0.61*
  Galactose, lipid fraction, plasma, treatment ratio versus control: 0.71*
  Glucosamine, plasma, treatment ratio versus control: 1.3*
  Glucose, plasma, treatment ratio versus control: 0.93*
  Glycerol, polar fraction, plasma, treatment ratio versus control: 0.87*
  Heneicosanoic acid (C21:0), plasma, treatment ratio versus control: 0.96
  Lactate, plasma, treatment ratio versus control: 0.72*
  Linolenic acid (C18:cis[9,12,15]3), plasma, treatment ratio versus control: 0.99
  Lysine, plasma, treatment ratio versus control: 0.86*
  Malate, plasma, treatment ratio versus control: 0.7*
  Oleic acid (C18:cis[9]1), plasma, treatment ratio versus control: 0.91
  Palmitoleic acid (C16:cis[9]1), plasma, treatment ratio versus control: 0.77
  Phenylalanine, plasma, treatment ratio versus control: 0.95*
  Phosphate (inorganic and organic phosphates), plasma, treatment ratio versus control: 1.02*
  Pyruvate, plasma, treatment ratio versus control: 0.72*
  Spermidine, plasma, treatment ratio versus control: 0.77*
  TAG (C16:0,C16:1), plasma, treatment ratio versus control: 1.06
  Uracil, plasma, treatment ratio versus control: 0.71*
  myo-Inositol, plasma, treatment ratio versus control: 0.93*
  trans-4-Hydroxyproline, plasma, treatment ratio versus control: 1.15

## CC(=O)CCC(C)=O [2,5-hexanedione]
Day 7
  18-Hydroxy-11-deoxycorticosterone, plasma, treatment ratio versus control: 0.89
  Alanine, plasma, treatment ratio versus control: 0.71*
  Arachidonic acid (C20:cis[5,8,11,14]4), plasma, treatment ratio versus control: 0.9
  Coenzyme Q9, plasma, treatment ratio versus control: 0.89
  Creatinine, plasma, treatment ratio versus control: 1.21*
  DAG (C18:1, C18:2), plasma, treatment ratio versus control: 0.51*
  Fructose-6-phosphate, plasma, treatment ratio versus control: 0.75*
  Galactose, lipid fraction, plasma, treatment ratio versus control: 0.96
  Glucosamine, plasma, treatment ratio versus control: 0.79*
  Glucose, plasma, treatment ratio versus control: 0.85*
  Glycerol, polar fraction, plasma, treatment ratio versus control: 0.96
  Heneicosanoic acid (C21:0), plasma, treatment ratio versus control: 0.97
  Lactate, plasma, treatment ratio versus control: 0.82*
  Linolenic acid (C18:cis[9,12,15]3), plasma, treatment ratio versus control: 0.89*
  Lysine, plasma, treatment ratio versus control: 0.96*
  Malate, plasma, treatment ratio versus control: 0.79*
  Oleic acid (C18:cis[9]1), plasma, treatment ratio versus control: 0.81*
  Palmitoleic acid (C16:cis[9]1), plasma, treatment ratio versus control: 0.82*
  Phenylalanine, plasma, treatment ratio versus control: 0.85*
  Phosphate (inorganic and organic phosphates), plasma, treatment ratio versus control: 0.89*
  Pyruvate, plasma, treatment ratio versus control: 1.04
  Spermidine, plasma, treatment ratio versus control: 0.95
  TAG (C16:0,C16:1), plasma, treatment ratio versus control: 0.49*
  Uracil, plasma, treatment ratio versus control: 0.85*
  myo-Inositol, plasma, treatment ratio versus control: 0.71*
  trans-4-Hydroxyproline, plasma, treatment ratio versus control: 0.84*
Day 14
  18-Hydroxy-11-deoxycorticosterone, plasma, treatment ratio versus control: 0.33*
  Alanine, plasma, treatment ratio versus control: 0.76*
  Arachidonic acid (C20:cis[5,8,11,14]4), plasma, treatment ratio versus control: 0.93
  Coenzyme Q9, plasma, treatment ratio versus control: 1.12*
  Creatinine, plasma, treatment ratio versus control: 1.64*
  DAG (C18:1, C18:2), plasma, treatment ratio versus control: 0.6*
  Fructose-6-phosphate, plasma, treatment ratio versus control: 0.7*
  Galactose, lipid fraction, plasma, treatment ratio versus control: 0.97
  Glucosamine, plasma, treatment ratio versus control: 0.9
  Glucose, plasma, treatment ratio versus control: 0.89*
  Glycerol, polar fraction, plasma, treatment ratio versus control: 0.98
  Heneicosanoic acid (C21:0), plasma, treatment ratio versus control: 0.84
  Lactate, plasma, treatment ratio versus control: 0.69*
  Linolenic acid (C18:cis[9,12,15]3), plasma, treatment ratio versus control: 0.57*
  Lysine, plasma, treatment ratio versus control: 0.93*
  Malate, plasma, treatment ratio versus control: 0.82*
  Oleic acid (C18:cis[9]1), plasma, treatment ratio versus control: 0.81*
  Palmitoleic acid (C16:cis[9]1), plasma, treatment ratio versus control: 1.03
  Phenylalanine, plasma, treatment ratio versus control: 0.84*
  Phosphate (inorganic and organic phosphates), plasma, treatment ratio versus control: 1
  Pyruvate, plasma, treatment ratio versus control: 0.95
  Spermidine, plasma, treatment ratio versus control: 0.89*
  TAG (C16:0,C16:1), plasma, treatment ratio versus control: 0.67*
  Uracil, plasma, treatment ratio versus control: 0.83*
  myo-Inositol, plasma, treatment ratio versus control: 0.79*
  trans-4-Hydroxyproline, plasma, treatment ratio versus control: 0.91*
Day 28
  18-Hydroxy-11-deoxycorticosterone, plasma, treatment ratio versus control: 0.24*
  Alanine, plasma, treatment ratio versus control: 0.77*
  Arachidonic acid (C20:cis[5,8,11,14]4), plasma, treatment ratio versus control: 1.03
  Coenzyme Q9, plasma, treatment ratio versus control: 1.02
  Creatinine, plasma, treatment ratio versus control: 1.35*
  DAG (C18:1, C18:2), plasma, treatment ratio versus control: 0.79*
  Fructose-6-phosphate, plasma, treatment ratio versus control: 0.69*
  Galactose, lipid fraction, plasma, treatment ratio versus control: 0.99
  Glucosamine, plasma, treatment ratio versus control: 0.91*
  Glucose, plasma, treatment ratio versus control: 0.85*
  Glycerol, polar fraction, plasma, treatment ratio versus control: 0.8*
  Heneicosanoic acid (C21:0), plasma, treatment ratio versus control: 0.99
  Lactate, plasma, treatment ratio versus control: 0.66*
  Linolenic acid (C18:cis[9,12,15]3), plasma, treatment ratio versus control: 0.92*
  Lysine, plasma, treatment ratio versus control: 0.96
  Malate, plasma, treatment ratio versus control: 0.74*
  Oleic acid (C18:cis[9]1), plasma, treatment ratio versus control: 0.92*
  Palmitoleic acid (C16:cis[9]1), plasma, treatment ratio versus control: 1.11
  Phenylalanine, plasma, treatment ratio versus control: 0.89*
  Phosphate (inorganic and organic phosphates), plasma, treatment ratio versus control: 1.01
  Pyruvate, plasma, treatment ratio versus control: 0.72*
  Spermidine, plasma, treatment ratio versus control: 0.94
  TAG (C16:0,C16:1), plasma, treatment ratio versus control: 0.95
  Uracil, plasma, treatment ratio versus control: 0.87*
  myo-Inositol, plasma, treatment ratio versus control: 0.89
  trans-4-Hydroxyproline, plasma, treatment ratio versus control: 0.87*

## C#CC1(O)CCC2C3CCc4cc(O)ccc4C3CCC21C (stereo not drawn) [17-alpha-Ethynylestradiol, 17-ethynyl-13-methyl-7,8,9,11,12,13,14,15,16,17-decahydro-6H-cyclopenta[a]phenanthrene-3,17-diol]
Day 7
  3-Hydroxybutyrate, plasma, treatment ratio versus control: 0.71
  3-O-Methylsphingosine (d18:1), plasma, treatment ratio versus control: 0.06
  Campesterol, plasma, treatment ratio versus control: 0.08
  Cholesterol, plasma, treatment ratio versus control: 0.05
  Coenzyme Q9, plasma, treatment ratio versus control: 0.09*
  Coenzyme Q10, plasma, treatment ratio versus control: 0.09*
  Glutamine, plasma, treatment ratio versus control: 0.84
  Histidine, plasma, treatment ratio versus control: 2.33*
  Lysine, plasma, treatment ratio versus control: 1.47
  Palmitoleic acid (C16:cis[9]1), plasma, treatment ratio versus control: 0.2
  Stearic acid (C18:0), plasma, treatment ratio versus control: 0.18
  Threonine, plasma, treatment ratio versus control: 1.44*
  erythro-Sphingosine, plasma, treatment ratio versus control: 0.03
Day 14
  3-Hydroxybutyrate, plasma, treatment ratio versus control: 0.23*
  3-O-Methylsphingosine (d18:1), plasma, treatment ratio versus control: 0.35*
  Campesterol, plasma, treatment ratio versus control: 0.6*
  Cholesterol, plasma, treatment ratio versus control: 0.57*
  Coenzyme Q9, plasma, treatment ratio versus control: 0.86
  Coenzyme Q10, plasma, treatment ratio versus control: 0.36*
  Glutamine, plasma, treatment ratio versus control: 0.91
  Histidine, plasma, treatment ratio versus control: 2.16*
  Lignoceric acid (C24:0), plasma, treatment ratio versus control: 0.47*
  Lysine, plasma, treatment ratio versus control: 1.4*
  Palmitoleic acid (C16:cis[9]1), plasma, treatment ratio versus control: 1.28
  Stearic acid (C18:0), plasma, treatment ratio versus control: 0.67*
  Threonine, plasma, treatment ratio versus control: 1.85*
  erythro-Sphingosine, plasma, treatment ratio versus control: 0.45*
